Experimental data taken from patent US20230146675A1, “PYRIMIDO[5,4-d]PYRIMIDINE DERIVATIVES AS ENT INHIBITORS FOR THE TREATMENT OF CANCERS, AND COMBINATION THEREOF WITH ADENOSINE RECEPTOR ANTAGONISTS” (ITEOS BELGIUM SA, priority 2020, published 2023).
pIC50: −log10 of the molar value.

Target: T1, human ENT1 (Homo sapiens, UniProt Q99808)
T1 sequence (Q99808 1-456): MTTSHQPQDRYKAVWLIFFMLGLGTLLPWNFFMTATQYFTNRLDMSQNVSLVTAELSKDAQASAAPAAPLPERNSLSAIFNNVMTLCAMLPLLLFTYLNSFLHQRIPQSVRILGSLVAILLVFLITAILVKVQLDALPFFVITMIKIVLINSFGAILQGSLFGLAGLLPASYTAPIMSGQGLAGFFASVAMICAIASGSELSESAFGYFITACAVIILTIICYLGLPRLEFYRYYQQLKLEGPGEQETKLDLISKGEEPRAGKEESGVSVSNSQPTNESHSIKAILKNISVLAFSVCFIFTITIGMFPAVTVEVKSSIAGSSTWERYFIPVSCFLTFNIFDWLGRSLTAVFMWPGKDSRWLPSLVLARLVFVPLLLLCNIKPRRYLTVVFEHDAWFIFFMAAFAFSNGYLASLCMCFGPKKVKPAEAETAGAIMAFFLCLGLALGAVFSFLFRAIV
Assay: ENT1 binding assay (competition with Sahenta-DY647 on JAR cells)
Parameters: JAR cells expressing ENT1 were bought from ATCC; host or cells: JAR cells
Settings: binned IC50
Procedure, shortened: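 JAR cells were incubated with test compounds and the fluorescent ligand Sahenta-DY647 in competition. Plates were washed twice by centrifugation (4 min, 400 rcf, 4 °C). Binding potency was derived from the final fluorescence.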

Compound | pIC50
COCCN(CCOC)c1nc(N2CCC(OC)CC2)c2nc(N(CCOC)Cc3ccc(OC)c(OC)c3OC)nc(N3CCC(OC)CC3)c2n1 [Compound 183, N2,N2,N6-tris(2-methoxyethyl)-4,8-bis(4-methoxypiperidin-1-yl)-N6-(2,3,4-trimethoxybenzyl)pyrimido[5,4-d]pyrimidine-2,6-diamine] | > 7.00
CCN(CCN1CCCC1)c1nc(N2CCC(OC)CC2)c2nc(N(CCOC)CCOC)nc(N3CCC(OC)CC3)c2n1 [Compound 132, N2-ethyl-N6,N6-bis(2-methoxyethyl)-4,8-bis(4-methoxypiperidin-1-yl)-N2-(2-(pyrrolidin-1-yl)ethyl)pyrimido[5,4-d]pyrimidine-2,6-diamine] | 6.00 to 6.30
COCCN(CCO)c1nc(N2CCN(C)C(=O)C2)c2nc(N(CCOC)CCOC)nc(N3CCC(OC)CC3)c2n1 [Compound 275, 4-(6-(bis(2-methoxyethyl)amino)-2-((2-hydroxyethyl)(2-methoxyethyl)amino)-8-(4-methoxypiperidin-1-yl)pyrimido[5,4-d]pyrimidin-4-yl)-1-methylpiperazin-2-one] | > 7.00
COCCN(CCOC)c1nc(N2CCC(OC)CC2)c2nc(N(CCOC)CCOC)nc(OCc3cccc(OC)c3)c2n1 [Compound 153, 4-((3-methoxybenzyl)oxy)-N2,N2,N6,N6-tetrakis(2-methoxyethyl)-8-(4-methoxypiperidin-1-yl)pyrimido[5,4-d]pyrimidine-2,6-diamine] | > 7.00
COCCN(CCOC)c1nc(N2CCC(OC)CC2)c2nc(N(CCOC)CCOC)nc(OCc3cccc(C#N)c3)c2n1 [Compound 156, 3-(((2,6-bis(bis(2-methoxyethyl)amino)-8-(4-methoxypiperidin-1-yl)pyrimido[5,4-d]pyrimidin-4-yl)oxy)methyl)benzonitrile] | 6.30 to 7.00
CCN(CC)c1nc(N(CCOC)CCOC)nc2c(N3CCC(OC)CC3)nc(N(CCOC)CCOC)nc12 [Compound 85, N4,N4-diethyl-N2,N2,N6,N6-tetrakis(2-methoxyethyl)-8-(4-methoxypiperidin-1-yl)pyrimido[5,4-d]pyrimidine-2,4,6-triamine] | > 7.00
COCCN(CCOC)c1nc(N2CCC(OC)CC2)c2nc(N(CCOC)CCOC)nc(N3CCCOCC3)c2n1 [Compound 79, N2,N2,N6,N6-tetrakis(2-methoxyethyl)-4-(4-methoxypiperidin-1-yl)-8-(1,4-oxazepan-4-yl)pyrimido[5,4-d]pyrimidine-2,6-diamine] | > 7.00
COCCN(CCOC)c1nc(N2CCC(OC)CC2)c2nc(N(CCO)Cc3ccc(OC)c(OC)c3OC)nc(N3CCC(OC)CC3)c2n1 [Compound 185, 2-((6-(bis(2-methoxyethyl)amino)-4,8-bis(4-methoxypiperidin-1-yl)pyrimido[5,4-d]pyrimi<din-2-yl)(2,3,4-trimethoxybenzyl)amino)ethanol] | > 7.00
COCCN(CCOC)c1nc(N2CCN(C)C(=O)C2)c2nc(N3CCNC(=O)C3)nc(N3CCC(OC)CC3)c2n1 [Compound 278, 4-(2-(bis(2-methoxyethyl)amino)-8-(4-methoxypiperidin-1-yl)-6-(3-oxopiperazin-1-yl)pyrimido[5,4-d]pyrimidin-4-yl)-1-methylpiperazin-2-one] | 6.30 to 7.00
COCCN(Cc1ccc(C(=O)O)c(C(F)(F)F)c1)c1nc(N2CCN(C)C(=O)C2)c2nc(N(CCOC)CCOC)nc(N3CCC(OC)CC3)c2n1 [Compound 339, 4-(((6-(bis(2-methoxyethyl)amino)-8-(4-methoxypiperidin-1-yl)-4-(4-methyl-3-oxopiperazin-1-yl)pyrimido[5,4-d]pyrimidin-2-yl)(2-methoxyethyl)amino)methyl)-2-(trifluoromethyl)benzoic acid] | > 7.00
COCCN(CCOC)c1nc(N2CCCN(C(C)=O)CC2)c2nc(N(CCOC)CCOC)nc(N3CCC(OC)CC3)c2n1 [Compound 98, 1-(4-(2,6-bis(bis(2-methoxyethyl)amino)-8-(4-methoxypiperidin-1-yl)pyrimido[5,4-d]pyrimidin-4-yl)-1,4-diazepan-1-yl)ethanone] | 6.30 to 7.00
COCCN(CCOC)c1nc(N2CCC(OC)CC2)c2nc(N(CCOC)CCOC)nc(NCc3cscn3)c2n1 [Compound 66, N2,N2,N6,N6-tetrakis(2-methoxyethyl)-8-(4-methoxypiperidin-1-yl)-N4-(thiazol-4-ylmethyl)pyrimido[5,4-d]pyrimidine-2,4,6-triamine] | 6.00 to 6.30
COCCN(CCOC)c1nc(N2CCC(OC)CC2)c2nc(N(CCO)CCO)nc(N3CC(=O)N(C)C(C)C3)c2n1 (stereo not shown) [Compound 309, 4-(2-(bis(2-hydroxyethyl)amino)-6-(bis(2-methoxyethyl)amino)-8-(4-methoxypiperidin-1-yl)pyrimido[5,4-d]pyrimidin-4-yl)-1,6-dimethylpiperazin-2-one] | 6.30 to 7.00
COCCN(CCOC)c1nc(N2CCC(OC)CC2)c2nc(N(CCOC)CCOC)nc(OCc3ccc(F)c(OC)c3)c2n1 [Compound 157, 4-((4-fluoro-3-methoxybenzyl)oxy)-N2,N2,N6,N6-tetrakis(2-methoxyethyl)-8-(4-methoxypiperidin-1-yl)pyrimido[5,4-d]pyrimidine-2,6-diamine] | > 7.00
COCCN(CCOC)c1nc(N2CCc3c(cnn3C)C2)c2nc(N(CCOC)CCOC)nc(N3CCN(C)C(=O)C3)c2n1 [Compound 255, 4-(2,6-bis(bis(2-methoxyethyl)amino)-8-(1-methyl-1,4,6,7-tetrahydro-5H-pyrazolo[4,3-c]pyridin-5-yl)pyrimido[5,4-d]pyrimidin-4-yl)-1-methylpiperazin-2-one] | > 7.00
COCCN(CCOC)c1nc(N2CCS(=O)(=O)CC2)c2nc(N(CCOC)CCOC)nc(N3CCN(c4ncn(C)n4)CC3)c2n1 [Compound 217, 4-(2,6-bis(bis(2-methoxyethyl)amino)-8-(4-(1-methyl-1H-1,2,4-triazol-3-yl)piperazin-1-yl)pyrimido[5,4-d]pyrimidin-4-yl)thiomorpholine 1,1-dioxide] | 6.30 to 7.00
COCCN(CCOC)c1nc(N2CC(O)(C(F)(F)F)C2)c2nc(N(CCOC)CCOC)nc(NCc3ccccc3)c2n1 [Compound 12, 1-(8-(benzylamino)-2,6-bis(bis(2-methoxyethyl)amino)pyrimido[5,4-d]pyrimidin-4-yl)-3-(trifluoromethyl)azetidin-3-ol] | > 7.00
COCCN(CCOC)c1nc(N2CCC(OC)CC2)c2nc(N(CCOC)CCOC)nc(N(C)Cc3ccc(OC)c(OC)c3)c2n1 [Compound 169, N4-(3,4-dimethoxybenzyl)-N2,N2,N6,N6-tetrakis(2-methoxyethyl)-8-(4-methoxypiperidin-1-yl)-N4-methylpyrimido[5,4-d]pyrimidine-2,4,6-triamine] | > 7.00
COCCN(CCOC)c1nc(N2CCC(OC)CC2)c2nc(N(CCOC)CCOC)nc(N(C)C)c2n1 [Compound 67, N2,N2,N6,N6-tetrakis(2-methoxyethyl)-8-(4-methoxypiperidin-1-yl)-N4,N4-dimethylpyrimido[5,4-d]pyrimidine-2,4,6-triamine] | 6.00 to 6.30
COCCN(CCOC)c1nc(N2CCC(OC)CC2)c2nc(N(CCOC)CCOCCCN3CCOCC3)nc(N3CCC(OC)CC3)c2n1 [Compound 44, N2,N2,N6-tris(2-methoxyethyl)-4,8-bis(4-methoxypiperidin-1-yl)-N6-(2-(3-morpholinopropoxy)ethyl)pyrimido[5,4-d]pyrimidine-2,6-diamine] | 6.00 to 6.30
COCCN(CCOC)c1nc(N2CCN(C)C(=O)C2)c2nc(N(CCOC)CCOC)nc(N(C)Cc3cccc(OC(F)(F)F)c3)c2n1 [Compound 236, 4-(2,6-bis(bis(2-methoxyethyl)amino)-8-(methyl(3-(trifluoromethoxy)benzyl)amino)pyrimido[5,4-d]pyrimidin-4-yl)-1-methylpiperazin-2-one] | > 7.00
COCCN(CCOC)c1nc(N2CCC(F)(F)CC2)c2nc(N(CCOC)CCOC)nc(N3CCC(F)(F)CC3)c2n1 [Compound 195, 4,8-bis(4,4-difluoropiperidin-1-yl)-N2,N2,N6,N6-tetrakis(2-methoxyethyl)pyrimido[5,4-d]pyrimidine-2,6-diamine] | 6.30 to 7.00
COCCN(CCOC)c1nc(N2CCC(OC)CC2)c2nc(N3CCn4nncc4C3)nc(N3CCN(C)C(=O)C3)c2n1 [Compound 287, 4-(6-(bis(2-methoxyethyl)amino)-2-(6,7-dihydro-[1,2,3]triazolo[1,5-a]pyrazin-5(4H)-yl)-8-(4-methoxypiperidin-1-yl)pyrimido[5,4-d]pyrimidin-4-yl)-1-methylpiperazin-2-one] | 6.30 to 7.00
COCCN(CCOC)c1nc(N2CCN(C)C(=O)C2)c2nc(N(CCOC)Cc3cc(OC)c(OC)c(OC)c3)nc(N3CCC(OC)CC3)c2n1 [Compound 269, 4-(2-(bis(2-methoxyethyl)amino)-6-((2-methoxyethyl)(3,4,5-trimethoxybenzyl)amino)-8-(4-methoxypiperidin-1-yl)pyrimido[5,4-d]pyrimidin-4-yl)-1-methylpiperazin-2-one] | > 7.00
COCCN(CCOC)c1nc(N2CCN(c3nnc(C)o3)CC2)c2nc(N(CCOC)CCOC)nc(N3CCC(OC)CC3)c2n1 [Compound 135, N2,N2,N6,N6-tetrakis(2-methoxyethyl)-4-(4-methoxypiperidin-1-yl)-8-(4-(5-methyl-1,3,4-oxadiazol-2-yl)piperazin-1-yl)pyrimido[5,4-d]pyrimidine-2,6-diamine] | 6.00 to 6.30
